Patent publication US20230174556A1, “COMPOUNDS AS PROTEIN KINASE INHIBITORS” (Fochon Biosciences, Ltd., priority 2020, published 2023)

tested on: OCI-LY10 (PI3Kδ dependent) cells; experiment: OCI-LY10 cell proliferation assay (MTS); type: cell-based; details: Homo sapiens, OCI-Ly10, 72 h, inhibition of OCI-LY10 cells proliferation, 72 h incubation, MTS readout at 490 nm
Method: MTS testing kit was purchased from Promega (Madison, WI, USA). The RPMI-1640, Fetal bovine serum and Penicillin-Streptomycin were purchased from BI (Biological Industries, Beit Haemek, Israel). Dimethyl sulfoxide (DMSO) was purchased from Sigma (St. Louis., MO, USA). OCI-LY10 cells were cultured in RPMI1640 supplemented with Penicillin-Streptomycin and 10% FBS.
To investigate whether a compound is able to inhibit the activity of PI3Kδ in cells, a mechanism-based assay using OCI-LY10 (PI3Kδ dependent) cells was developed. In this assay, inhibition of PI3Kδ was detected by the inhibition of OCI-LY10 cells proliferation. Cells were plated into 96-well plates at a density of 10000 cells/well. Plates were incubated at 37° C., with 5 % CO2 for 4 h. Compounds were serially diluted and added to the plates with the final compound concentrations as 10000, 3333.3, 1111.1, […], 123.5, 41.2, 13.7, 4.6 and 1.5 nM. Plates were incubated at 37° C., with 5 % CO2 for 72 h. 20 µl MTS was added into each well and the plates were incubated at 37° C., with 5 % CO2 for exactly 2 h. The absorbance was measured by a microplate reader at 490 nm. IC50 was calculated using GraphPad Prism 5.0 software.

SMILES	IC50 [nM]
CC(C)Oc1ccc(-c2nn([C@H](c3cc4scc(Cl)n4c(=O)c3-c3cccc(F)c3)C3CC3)c3ncnc(N)c23)cc1F [Example 11, (S)-7-((4-amino-3-(3-fluoro-4-isopropoxyphenyl)-1H-pyrazolo[3,4-d]pyrimidin-1-yl)(cyclopropyl)methyl)-3-chlor o-6-(3-fluorophenyl)-5H-thiazolo[3,2-a]pyridin-5-one]	1
Cc1csc2cc([C@H](C)n3nc(-c4ccc(OC(C)C)c(F)c4)c4c(N)ncnc43)c(-c3ccccc3)c(=O)n12 [Example 2-S, (S)-7-(1-(4-amino-3-(3-fluoro-4-isopropoxyphenyl)-1H-pyrazolo[3,4-d]pyrimidin-1-yl)ethyl)-3-methyl-6-phenyl-5H-thiazolo[3,2-a]pyridin-5-one]	1

Second part, the molecule after the results:

IC50 [nM]	SMILES
1	Cc1csc2cc([C@H](C)n3nc(-c4cnc(OC(C)C)c(F)c4)c4c(N)ncnc43)c(-c3cccc(F)c3)c(=O)n12 [Example 21, (S)-7-(1-(4-amino-3-(5-fluoro-6-isopropoxypyridin-3-yl)-1H-pyrazolo[3,4-d]pyrimidin-1-yl)ethyl)-6-(3-fluorophenyl)-3-methyl-5H-thiazolo[3,2-a]pyridi n-5-one]
1	COc1ccc(-c2nn([C@@H](C)c3cc4scc(C)n4c(=O)c3-c3cccc(F)c3)c3ncnc(N)c23)cc1NS(C)(=O)=O [Example 5, (S)-N-(5-(4-amino-1-(1-(6-(3-fluorophenyl)-3-methyl-5-oxo-5H-thiazolo[3,2-a]pyridin-7-yl)ethyl)-1H-pyrazolo[3,4-d]pyrimidin-3-yl)-2-methoxyphenyl)methanesulfonamide]

same assay, conditions: inhibition of OCI-LY10 cells proliferation, 72 h incubation, MTS readout at 490 nm

SMILES	IC50 [nM]
COc1ncc(-c2nn([C@@H](C)c3cc4scc(C)n4c(=O)c3-c3cccc(F)c3)c3ncnc(N)c23)cc1NS(C)(=O)=O [Example 77, (S)-N-(5-(4-amino-1-(1-(6-(3-fluorophenyl)-3-methyl-5-oxo-5H-thiazolo[3,2-a]pyridin-7-yl)ethyl)-1H-pyrazolo[3,4-d]pyrimidin-3-y1)-2-methoxypyridin-3-yl)methanesulfonamide]	1
Cc1csc2cc(C(C)n3nc(-c4ccc(OC(C)C)c(F)c4)c4c(N)ncnc43)c(-c3ccccc3)c(=O)n12 (stereo not drawn) [Example 2, 7-(1-(4-amino-3-(3-fluoro-4-isopropoxyphenyl)-1H-pyrazolo[3,4-d]pyrimidin-1-yl)ethyl)-3-methyl-6-phenyl-5H-thiazolo[3,2-a]pyridin-5-one]	2
